pKd: −log10 of the molar value. Entries after “also recorded” stand apart in the source; their conditions may differ. Non-standard residues stand in square brackets, D forms with d. Residues, ends and D or L forms follow the SMILES beside them. *: point of attachment. NMeR = CN[C@@H](CCCNC(=N)N)C(=O)O; X1 = N=C(N)NCCC[C@H](CN)C(=O)*; β3hK = NCCCC[C@H](N)CC(=O)O; Nle = CCCC[C@H](N)C(=O)O
Columns and labels:
[1] = molecular target: T1, CD47 (membrane preparation from MEC-1 cells) (Homo sapiens, UniProt Q08722); assay: Binding affinity by biolayer interferometry (Octet RED96) on biotinylated MEC-1 cell membrane preparation; conditions: for Kd (μM) (OR): Table 2, average of at least three independent experiments, NPD = Non Pertinent Data
T1 construct: MEC-1 cell membrane preparation were biotinylated with the EZ-Link NHS-PEG4-Biotin kit; endogenous in cells; host or cells: MEC-1 cells (membrane preparation)
T1 sequence (Q08722 19-323): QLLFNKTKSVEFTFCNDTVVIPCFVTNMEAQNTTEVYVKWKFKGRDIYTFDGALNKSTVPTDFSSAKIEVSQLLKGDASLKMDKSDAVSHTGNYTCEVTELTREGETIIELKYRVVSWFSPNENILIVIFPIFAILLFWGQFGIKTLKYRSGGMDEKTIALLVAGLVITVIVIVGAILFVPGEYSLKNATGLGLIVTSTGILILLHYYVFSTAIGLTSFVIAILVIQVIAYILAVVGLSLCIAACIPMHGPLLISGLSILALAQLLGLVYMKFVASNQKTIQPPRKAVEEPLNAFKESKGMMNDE
Description: The binding affinities of peptides for a membrane preparation from MEC-1 cells were measured by biolayer interferometry on an Octet RED96 System (Pall FortéBio Corp., Menlo Park, Calif.).
The binding affinities of peptides for a membrane preparation from MEC-1 cells were measured by biolayer interferometry on an Octet RED96 System (Pall FortéBio Corp., Menlo Park, Calif.). This system monitors interference of light reflected from two sources (an internal reflection surface and the liquid/solid interface of a fiber optic sensor) to measure the rate of binding of molecules to the biosensor surface.
MEC-1 cell membrane preparation were biotinylated with the EZ-Link NHS-PEG4-Biotin kit from Thermo-Scientific. Biotinylated membranes were then loaded onto SuperStreptavidin (SSA) biosensors (Pall FortéBio Corp.) at empirically determined concentrations.
In order to highlight the pharmacological properties of these peptides, a systematic SAR study by the development of a binding assay allowing to the assessment of the affinity of the 4N1K analogues to CD47 was initiated. […] An Ala-scan to identify the pharmacophores of 4N1K was implemented.
The binding affinities of peptides for a MEC-1 cells membrane preparation were measured by biolayer interferometry on an Octet RED96 System (Pall FortéBio Corp., Menlo Park, Calif.). This system monitors interference of light reflected from two sources (an internal reflection surface and the liquid/solid interface of a fiber optic sensor) to measure the rate of binding of molecules to the biosensor surface. MEC-1 cells membrane preparation is biotinylated with the EZ-Link NHS-PEG4-Biotin kit from Thermo-Scientific and excess biotin is removed using desalting column from Thermo-Scientific. Biotinylated membranes are then loaded onto SuperStreptavidin (SSA) biosensors (Pall FortéBio Corp.) at empirically determined concentrations. […] Typically, the biosensors were pre-equilibrated in PBS containing either biotinylated membranes or biocytine 100 μg/mL. Biosensors are then equilibrated in assay buffer for 10 min, brought to baseline in assay buffer for 60 sec. and transferred to wells containing peptide in dose-response (association for 120 sec. and dissociation for 300 sec.). The double reference with either membrane-loaded biosensors without any peptide dose-response or biocytine-loaded biosensors with each peptide dose-response were run in parallel for background signal double subtractions. Binding kinetics were calculated using the FortéBio Data Analysis v8.2 software.

MEC-1 cells = assay: MEC-1 cell death (PCD) after 2 h peptide treatment; assay type: cell-based; conditions: for MEC-1 Cell Death (%) 2 h: Table 2, NPD = Non Pertinent Data
Description: Then the peptides structures were tested via NMR and X-ray. The peptides were also tested for their activity on MEC-1 and their KDs and Retention times on LCMS were determined.

[2] = Solubility of the peptides in water / aqueous buffer (NMR, CD samples); assay type: physicochemical; conditions: for solubility of peptide (in words): aqueous buffer, NMR / CD samples
Description: CD spectra were recorded on a Jasco 815 spectropolarimeter (Jasco Inc., Easton, Md.) over the wavelength range 190-260 nm, at 0.2 nm intervals and 10 nm·min^−1 scan speed. Peptides were dissolved at 50 μM concentration in a 10 mM sodium phosphate buffer at pH 7.4, using 0.1 cm path length quartz cells (Hellma, Mullheim, Germany). CD spectra were deconvoluted with CDFriend program in order to estimate the peptide secondary structure content.
NMR experiments were recorded on a 500 MHz Bruker Avance III spectrometer (Wissembourg, France) equipped with a TCI cryoprobe. NMR samples were prepared in 50 mM sodium succinate buffer, pH 5, using 2 mM peptide concentration. Sodium 2,2-dimethyl-2-silapentane-d6-5-sulfonate (Sigma Aldrich) was added at 0.1 mM concentration for chemical shift calibration and measurement of the solubilized peptide concentration. NMR experiments were processed with TOPSPIN 2.1 software (Bruker) and spectra were analyzed with Sparky program. ^1H, ^13C and ^15N resonances were assigned using 2D ^1H-^1H TOCSY (DIPSI2 isotropic scheme of 70 ms duration), 2D ^1H-^1H ROESY (300 ms mixing time), 2D ^1H-^13C HSQC, 2D ^1H-^15N HSQC, and 2D ^1H-^13C HMBC spectra. The complete ^1H, ^13C and ^15N NMR assignments of peptides 4N1K, PKT2, PKHB1 and 4NGG are provided in Tables S1-S4 (supporting information). […] The chemical shift deviations of Ha protons and Cα carbons were calculated as the differences between observed chemical shifts and random coil values reported in water. The conformational analysis of thrombospondin-1 was carried out on the crystal structure of a C-terminal fragment of human thrombospondin-1 using Pymol (Schrödinger) and Procheck programs. Predictions of NMR chemical shifts on the X-ray structure were carried out using SHIFTX2 program.

[3] = molecular target: T2, CD47 (NT.115-labeled membrane) (Homo sapiens, UniProt Q08722); assay: Binding affinity by microscale thermophoresis (MST), NT.115-labeled membrane; conditions: Table 2; average of at least three independent experiments; NPD = Non Pertinent Data
T2 construct: the concentration of the NT.115-labeled membrane was kept constant; endogenous in cells
T2 sequence (Q08722 19-323): as above
Description: For all experiments the concentration of the NT.115-labeled membrane was kept constant, while the concentrations of the ligand (peptide) was varied. After a short incubation time (5 min) the samples were loaded into MST premium glass capillaries and the MST analysis was performed using the Monolith NT.115.

[4] = tested on: B-chronic lymphocytic leukemia (CLL) primary cells; conditions: soluble peptide; WO 2013/182650; cited from earlier work
OSU cells = assay: Deaths on OSU cells treated with PKT16 or PKT16-FF (FIG. 4); assay type: cell-based; conditions: 6 hours, control 9.5%
Description: FIG. 4: compares deaths on OSU cells treated with PKT16 or PKT16-FF. For PKT16, it can be seen that the reported deaths are of 11.1, 17.9 and 52.7% for concentrations of 25 μM, 50 μM and 100 μM respectively. For PKT16-FF, it can be seen that the reported deaths are of 16.6, 38.3 and 82.4% for concentrations of 25 μM, 50 μM and 100 μM respectively. The control test provided 9.5% death of the cells.
It was synthesized using common solide phase peptide synthesis technics as mentioned above.

[5] = tested on: B CLL cells that have the C481S mutation BTK gene; assay: Sensitivity of ibrutinib-resistant B CLL cells to PKT16; assay type: cell-based; conditions: resistance to Ibrutinib
CLL cells = assay: Cell death (Annexin-V and PI co-positivity) in CLL cells (FIG. 2); assay type: cell-based; conditions: 6 h
Description: FIG. 2A: cell death, measured as Annexin-V and PI co-positivity, was assessed leukemic cells treated 6 h with different concentrations of PKT16 or PKHB1. The data in the plot are the mean±s.d. (n=5). FIG. 2B: cell death induced by PKT16 (100 μM, 6 h) was measured in B-cells from twenty healthy donors and forty CLL patients. The percentages refer to the mean of the Annexin-V/PI-positive staining

Structure (SMILES): CSCC[C@H](NC(=O)[C@@H](NC(=O)[C@@H](NC(=O)[C@H](Cc1ccc(O)cc1)NC(=O)[C@H](Cc1ccccc1)NC(=O)[C@@H](N)CCCNC(=N)N)C(C)C)C(C)C)C(=O)N[C@@H](Cc1c[nH]c2ccccc12)C(=O)N[C@@H](CCCCN)C(=O)O [4N1, reference compound]
- Kd (μM) (OR) [1]: NPD
- MEC-1 Cell Death (%) 2 h (MEC-1 cells): 13%
- solubility of peptide (in words) [2]: least soluble; also recorded: poorly soluble

Structure (SMILES): CSCC[C@H](NC(=O)CNC(=O)CNC(=O)[C@H](Cc1ccc(O)cc1)NC(=O)[C@H](Cc1ccccc1)NC(=O)[C@H](CCCNC(=N)N)NC(=O)[C@@H](N)CCCCN)C(=O)N[C@@H](Cc1c[nH]c2ccccc12)C(=O)N[C@@H](CCCCN)C(=O)N[C@@H](CCCCN)C(=O)O [4NGG, reference compound] (H-KRFYGGMWKK-OH)
- Kd (μM) (OR) [1]: NPD
- Kd (μM) (MST) [3]: NPD
- MEC-1 Cell Death (%) 2 h (MEC-1 cells): 2%
- induction of PCD [4]: unable to induce PCD

Structure (SMILES): CCCC[C@H](NC(=O)[C@@H](NC(=O)[C@@H](NC(=O)[C@H](Cc1ccc(O)cc1)NC(=O)[C@H](Cc1ccccc1)NC(=O)[C@H](CCCNC(=N)N)N(C)C(=O)[C@H](N)CCCCN)C(C)C)C(C)C)C(=O)N[C@@H](Cc1c[nH]c2ccccc12)C(=O)N[C@@H](CCCCN)C(=O)N[C@H](CCCCN)C(=O)O [PKT16, H-(D)K ψ(CONMe)R F Y V V X W K (D)K-OH] (H-[dK][NMeR]FYVV[Nle]WK[dK]-OH)
- pKd ([1]; Table 5, apparent Kd, biolayer interferometry, read-out: Kd (BI)): 4.13
- Cell Death (MEC-1, 2 h) (MEC-1 cells; Table 4): 68%
- deaths on OSU cells (OSU cells; 25 μM): 11.1%
- deaths on OSU cells (OSU cells; 50 μM): 17.9%
- deaths on OSU cells (OSU cells; 100 μM): 52.7%
- sensitivity to treatment with PKT16 [5]: sensitive
- PCD activity relative to PKHB1 (CLL cells): improved PCD activity

Structure (SMILES): CCCC[C@H](NC(=O)[C@@H](NC(=O)[C@@H](NC(=O)[C@H](Cc1ccccc1)NC(=O)[C@H](Cc1ccccc1)NC(=O)[C@H](CCCNC(=N)N)N(C)C(=O)[C@H](N)CCCCN)C(C)C)C(C)C)C(=O)N[C@@H](Cc1c[nH]c2ccccc12)C(=O)N[C@@H](CCCCN)C(=O)N[C@H](CCCCN)C(=O)O [PKT16-FF, H-(D)K ψ(CONMe)R F F V V X W K (D)K-OH] (H-[dK][NMeR]FFVV[Nle]WK[dK]-OH)
- solubility in water ([2]; water): low solubility in water

Structure (SMILES): CSCC[C@H](NC(=O)[C@@H](NC(=O)[C@@H](NC(=O)[C@H](Cc1ccc(O)cc1)NC(=O)[C@H](Cc1ccccc1)NC(=O)[C@H](CCCNC(=N)N)NC(C)=O)C(C)C)C(C)C)C(=O)N[C@@H](Cc1c[nH]c2ccccc12)C(=O)N[C@@H](CCCCN)C(N)=O [compound 1]
- MEC-1 Cell Death (%) 2 h (MEC-1 cells): 27%
- solubility of peptide (in words) ([2]; listed as PKT1): least soluble; also recorded: poorly soluble

Structure (SMILES): CSCC[C@H](NC(=O)[C@@H](NC(=O)[C@@H](NC(=O)[C@H](Cc1ccc(O)cc1)NC(=O)[C@H](Cc1ccccc1)NC(=O)[C@@H](CN)CCCNC(=N)N)C(C)C)C(C)C)C(=O)N[C@@H](Cc1c[nH]c2ccccc12)C(=O)N[C@@H](CCCCN)CC(=O)O [compound 3, (β^2hR)FYVVMW(β^3hK)] (X1-FYVVMW[β3hK]-OH)
- Kd (μM) (OR) [1]: NPD
- Kd (μM) (MST) [3]: NPD
- MEC-1 Cell Death (%) 2 h (MEC-1 cells): NPD
- solubility of peptide (in words) [2]: poorly soluble

Source: patent publication US11759496B2, “Compounds and pharmaceutical use thereof in the treatment of cancer” (priority 2016, dated 2023)
